What is called bioavailability is dose-corrected exposure relative to a reference, in per cent. A higher bioavailability goes with good availability.

The record followed here is US20240300945A1, “CLY SERIES COMPOUND, PREPARATION METHOD THEREFOR AND USE THEREOF IN PREPARATION OF DRUGS” (NANJING WELLBEST PHARMACEUTICAL CO., LTD, priority 2021, published 2024).

The nature of series [1]: Pharmacokinetic properties of rats (bioavailability). Particulars: rat, po; male SD rats; intravenous 1 mg/kg, intragastric 5 mg/kg; plasma LC/MS/MS. It is filed as in vivo. The method, then: Male SD rats were randomly assigned to each group, 12 rats in each compound group, and then randomly divided into two groups. Six rats were administered intravenously (1 mg/kg), and blood was collected and plasma was separated respectively at 0.0833, 0.25, 0.5, 1, 2, 4, 6, 8, and 24 hours after administration. The other six rats were administered intragastrically (5 mg/kg), and blood was collected and plasma was separated respectively at 0.25, 0.5, 1, 2, 4, 6, 8, and 24 hours after administration. The concentration of each compound in plasma was determined by LC/MS/MS method, and the relevant pharmacokinetic parameters were calculated by using the software Phoenix WinNonlin 6.2.1, the bioavailability in rats was calculated, and the pharmacokinetic properties of each compound were evaluated.

Series [2] has as its system rabbit ear acne model. Briefly: Rabbit ear acne model: macroscopic observation and histological grading. To be noted: for number of rabbits with acne histological grading 2+: Grade 2; for number of rabbits with acne histological grading 2+ / number of rabbits with acne histological grading — / number of rabbits with acne histological grading 1+ / number of rabbits with acne histological grading 3+: right ear, 10 per group; for number of rabbits with acne histological grading —: Level 0, without acne; for number of rabbits with acne histological grading 1+: Level 1; for number of rabbits with acne histological grading 3+: Level 3. It is filed as in vivo, New Zealand rabbits. From the text: (1) Preparation method of treatment cream: The excipient matrix components included methyl silicone oil (15%), stearic acid (6%), white vaseline (5%), liquid paraffin (5%), octadecanol (5%), glycerin (20%), alkyl aryl polyglycol ether (1%), fatty alcohol polyoxyethylene ether (1%), […] (1%), ethyl paraben (0.1%), distilled water (about 31-55%), and mixed with appropriate amount of CLY series compounds to form a mixed emulsion. The emulsion matrix used in this embodiment refers to the matrix component after the active ingredient was removed from the emulsion.
(2) Positive therapeutic drug: 0.1% adapalene gel (Trade name: Differin, produced by Laboratoires Galderma, France).
(§1) New Zealand rabbits were, according to weights, randomly divided into the model control group (applied cream matrix), positive treatment group (applied Differin on the skin), CLY-1 external treatment group (0.25% CLY-1 cream on the skin), CLY-2 external treatment group (0.25% CLY-2 cream on the skin), CLY-3 external treatment group (0.25% CLY-3 cream on the skin), CLY-4 external treatment group (0.25% CLY-4 cream on the skin) CLY-8 external treatment group (0.25% CLY-8 cream on the skin), CLY-9 external treatment group (0.25% CLY-9 cream on the skin), CLY-11 external treatment group (0.25% CLY-11 cream on the skin), CLY-19 external treatment group (0.25% CLY-19 cream on the skin), CLY-36 external treatment group (0.25% CLY-36 cream on the skin); CLY-1 intravenous injection group (1 mg/kg·d), CLY-2 intravenous injection group (1 mg/kg·d), CLY-3 intravenous injection group (1 mg/kg·d), CLY-4 intravenous injection group (1 mg/kg·d), CLY-8 intravenous injection group (1 mg/kg·d), CLY-9 intravenous injection group (1 mg/kg·d), CLY-11 intravenous injection group (1 mg/kg·d), CLY-19 intravenous injection group (1 mg/kg·d), and CLY-36 intravenous injection group (1 mg/kg·d), with 10 in each group. Took the inner side of the rabbit's right ear for depilation treatment as the observation area, and the inner side of the left ear of all rabbits as their own negative control, and applied 95% alcohol. The inner side of the right ear of the model group and the treatment group were both coated with 2% coal tar (Alfa Aesar China, which used 95% alcohol to prepare 2% coal tar solution), and evenly applied the sterile cotton swab to the opening of the ear duct on the inner side of the rabbit's ear within the range of about 2 cm×2 cm, once a day, 0.5 mL each time, and wiped the previous application site with warm water for 14 consecutive days to establish the acne micro-pigmentation model. Visually observed the changes of local skin, including ear thickness, hardness, roughness, and whether there was a black angle plug at the hair follicle mouth. 18 hours after the last application, the sample was sacrificed and skin was taken. The skin tissue was taken from the application site by using a 5 mm punch, fixed with 10% formaldehyde, embedded in paraffin, and stained with HE. The histopathological observation and analysis were carried out.
The histological grading criteria of the acne model: 3 grades according to histological grade. […] The tight keratin embolism in the hair follicles causes severe expansion of the hair follicles, obvious hyperplasia of the sebaceous duct epithelium, skin bulges and scars, and some sebaceous glands degenerate “3±”.
(§2) SPSS16 software was used for statistical analysis. The paired t-test was used for the left and right self-contrast, and the t-test was used for the comparison between the groups, P<0.05 was statistically significant.

Series [3] deals with rabbit ear acne model. Briefly: Rabbit ear acne model: epidermal thickness, hair follicle area, sebaceous gland diameter. It is filed as in vivo, New Zealand rabbits. Particulars: rabbit right ear.
Text: as §1
The histopathological changes were observed under the microscope, and the thickness of five different epidermises on a slice was measured with the Biomias99 image analysis system, and the average value was calculated; Detected the area of the two hair follicles and the diameter of the four sebaceous glands with the same position and the most complete structure in the four sections, calculated their average values, and then subtracted the data of the left and right external auditory canal of the rabbits in each group to obtain the difference in the thickness of the left and right ear epidermis, the difference in the area of the hair follicles and the difference in the diameter of the sebaceous glands.
as §2

Setting [4] is: external use (0.25% CLY cream; positive: Differin).
Setting [5] is: intravenous injection 1 mg/kg·d.

Marks after values point to notes of the source that are not given here.

The compound `O=C(c1ccccc1Cl)N(c1ncccc1Cl)[C@@H]1CCCNC1` [CLY-37] registered a bioavailability in series [1] of 56.5%.
In series [1], `Cc1ccccc1-c1ccc(C(=O)N(c2ncccc2Cl)[C@@H]2CCNC2)cc1` [CLY-30] returned a bioavailability of 46.2%.
Same read-out and setting: the result for `COC1CCC[C@@H](N(C(=O)c2cccc(-c3nnn[nH]3)c2)c2ncccc2Cl)C1` (some centres unmarked) [CLY-17] reads 52.5%.
For `COc1ccc(-c2ccc3cc(C(=O)O)ccc3c2)cc1C12CC3CC(CC(C3)C1)C2` [Positive treatment group, adapalene, reference compound], in series [2] (setting [4]), the “number of rabbits with acne histological grading 2+” value is listed as 3, the “number of rabbits with acne histological grading —” value is on record as 5, the “number of rabbits with acne histological grading 1+” value worked out at 2 and the “number of rabbits with acne histological grading 3+” value stood at 0. The “macroscopic observation of right ear” value in series [2] (after 14 days of coal tar, external treatment) was “slightly red, with a little desquamation and a small amount of acne”. Further, in series [3] (setting [4]), the epidermal thickness amounted to 0.2389 ± 0.0176 mm, the hair follicle area is given as 0.2789 ± 0.0926* mm^2 and the sebaceous gland diameter worked out at 0.0723 ± 0.0387 mm.
In series [1], `CC(C)C(=O)OC(C)n1nnc(-c2c(-c3ccc(C(=O)N(c4ncccc4Cl)C4CCNC4)cc3)cnn2C)n1` [CLY-44, 1-(5-(4-(4-((3-chloropyridin-2-yl) (((R)-pyrrolidin-3-yl)carbamoyl)phenyl)-1-methyl-1H-pyrazol-5-yl)-2H-tetrazol-2-yl)ethyl isobutyrate] returned a bioavailability of 50.6%.
For the compound `O=C(c1ccc(-n2nnc3cccnc32)cc1)N(c1ncccc1Cl)[C@@H]1CCCN1` [CLY-9], in series [2] (setting [4]), the “number of rabbits with acne histological grading 2+” value came to 1, the “number of rabbits with acne histological grading —” value turned out to be 5, the “number of rabbits with acne histological grading 1+” value amounted to 4 and the “number of rabbits with acne histological grading 3+” value is listed as 0. Further, in series [2] (setting [5]), the “number of rabbits with acne histological grading 2+” value worked out at 0, the “number of rabbits with acne histological grading —” value was 7, the “number of rabbits with acne histological grading 1+” value came to 3 and the “number of rabbits with acne histological grading 3+” value turned out to be 0. Also, in series [3] (setting [4]), the epidermal thickness was 0.2389 ± 0.0189 mm, the hair follicle area is recorded as 0.2834 ± 0.0981* mm^2 and the sebaceous gland diameter came to 0.0715 ± 0.0412 mm. In addition, in series [3] (setting [5]), the epidermal thickness is recorded as 0.2126 ± 0.0167 mm, the hair follicle area is recorded as 0.2327 ± 0.0865* mm^2 and the sebaceous gland diameter is listed as 0.0614 ± 0.0396 mm.
On to `O=C(c1ccccc1-c1nnn[nH]1)N(c1ncccc1Cl)[C@@H]1CCCNC1` [CLY-21], for which the bioavailability in series [1] stood at 49.6%.
Still for that read-out and setting: for `CCN1CCC[C@@H](N(C(=O)c2ccc(-c3ccc(Cl)cc3)cc2)c2ncccc2Cl)C1` [CLY-35] the value was 62.2%; for `O=C(c1ccc(-c2ccc(Cl)cc2)cc1)N(c1ncccc1Cl)[C@@H]1CCCNC1` [CLY-26], 48.5%.
The same measure, in the same setting: for `Nc1ccccc1-c1ccc(C(=O)N(c2ncccc2Cl)[C@@H]2CCNC2)cc1` [CLY-28] the value was 42.6%; for `O=C(c1ccc(-c2cccc(-c3nnn[nH]3)c2)cc1)N(c1ncccc1Cl)[C@@H]1CCNC1` [CLY-18], 46.9%.
On the same count and under the same terms, the result for `CN1CCC[C@@H](N(C(=O)c2ccc(-c3ccccc3)cc2)c2ncccc2Cl)C1` [CLY-32] reads 58.6%.
